Several values for one entry are separate records, joined by “and”; a condition that tells them apart may be missing. Identical values can stand only once. Marks after values point to notes of the source that are not given here.
Tested on: normally hatched blastocysts from mice
Test: Thawed recovery rate of normally hatched mouse blastocysts incubated with E-64d before programmed freezing
Format: cell-based
Settings: for the thawed recovery rate (%): 2 h incubation before freezing, counted after 24-hour recovery, mean ± SD
Experimental: Female mice with pale pink vulvas were randomized and intraperitoneally injected with pregnant mare serum gonadotrophin (PMSG) at a dosage of 10 IU/mouse. After 48 hours, the female mice were further injected with human chorionic gonadotropin (hCG) at a dosage of 10 IU/mouse, and then were immediately housed in a cage with adult male mice at a ratio of 1:1 overnight for mating. The mice were checked for mating at 8 a.m. next day and injected with anti-PMSG (A-PMSG) at a dosage of 10 IU/mouse once the vaginal suppository was observed. The mice were sacrificed at 9 a.m. on Day 5 after the vaginal suppository was observed. The uteruses on both sides of the mice were removed and flushed with the PBS working solution to obtain normally hatched blastocysts.
The normally hatched blastocysts as obtained (about 100 blastocysts) were rinsed with 100 μl PBS solution for three times and then with 100 μl CZB working solution for another three times. Afterwards, the blastocysts were transferred into drops of the E-64d-CZB working solutions at 0, 0.5, 1, 1.5, 2, 3, 5, and 10 μmol/L, and then incubated in vitro in an incubator at 37° C., 5% CO2 in air, and 100% humidity for 2 hours.
The incubated embryos were washed twice with the PBS working solution, then subjected to PBS removal through a three-step process, and equilibrated for 5 min in a freezing solution (Bioniche, ViGRO™, ETHYLENE GLYCOL FREEZE (with Sucrose), Lot:150206-2P). Afterwards, the embryos were placed in 0.25 ml plastic straws. Then the straws containing the embryos were placed in a control rate freezer, cooled to −5° C. at a rate of 1° C./min, and then equilibrated for 10 min. During equilibration, the straws containing the embryos were clamped with pre-cooled forceps at the upper end for 3-5 seconds, thereby the freezing solution forming ice crystals, that is to say, ice seeding was completed. The straws containing the embryos were equilibrated for another 10 minutes, and then cooled down to −35° C. at a rate of 0.3° C./min. Subsequently, the frozen straws were placed in liquid nitrogen.
During thawing, the frozen straws were removed from the liquid nitrogen, gently shaken at room temperature for 5-10 seconds, placed in water at 35° C. for 10-15 seconds, and then removed from the water. The plugs at both ends of the straws were cut off, and then the embryos in the straws were placed in watch glasses, and subjected to the removal of the freezing solution through a three-step process. After recovery by thawing, the embryos were placed into drops of equilibrated fresh CZB for 24-hour recovery. After 24 hours, the thawed recovery rate was counted.
The three-step process for PBS removal as mentioned above was specifically as follows. Before the embryos were immersed in the freezing solution and then placed in straws for freezing, they were washed with 100 μl of the drops of the following mixed solutions sequentially (3-5 min for each mixed solution): the freezing solution ⅓+PBS ⅔, the freezing solution ½+PBS ½, and the freezing solution ⅔+PBS ⅓.
The three-step process for the removal of the freezing solution as mentioned above was specifically as follows. The embryos were washed with 100 μl of the drops of the following mixed solutions sequentially (3-5 min for each mixed solution): the freezing solution ⅔+PBS ⅓, the freezing solution ½+PBS ½, and the freezing solution ⅓+PBS ⅔.
All the experimental data was subjected to Chi-square analysis by SPSS 21.0 statistical software.

## CCOC(=O)[C@H]1O[C@@H]1C(=O)N[C@@H](CC(C)C)C(=O)NCCC(C)C [E-64d, ethyl (2S,3S)-3-[[(2S)-4-methyl-1-(3-methylbutylamino)-1-oxopentan-2-yl]carbamoyl]oxirane-2-carboxylate]
E-64d 0.5 μmol/L in CZB medium
  the thawed recovery rate (%): 75.35 ± 3.51^b %
E-64d 1 μmol/L in CZB medium
  the thawed recovery rate (%): 80.67 ± 5.40^Aa %
E-64d 1.5 μmol/L in CZB medium
  the thawed recovery rate (%): 79.45 ± 4.28^Aa %
E-64d 2 μmol/L in CZB medium
  the thawed recovery rate (%): 78.65 ± 2.56^b %
E-64d 3 μmol/L in CZB medium
  the thawed recovery rate (%): 76.26 ± 5.32^b %
E-64d 5 μmol/L
  thawed recovery rate compared with the control (in words): nearly comparable to that in absence of the inhibitor
E-64d 5 μmol/L in CZB medium
  the thawed recovery rate (%): 72.64 ± 2.13^B %
E-64d 10 μmol/L
  decrease of the thawed recovery rate as compared with the control: about 15%
E-64d 10 μmol/L in CZB medium
  the thawed recovery rate (%): 62.58% and 62.58 ± 3.72^B %
E-64d 0.5-3 μmol/L
  thawed recovery rate compared with the control (in words): improved to different extents as compared with the control
E-64d 1 or 1.5 μmol/L
  improvement of the thawed recovery rate as compared with the control: about 10%

From patent US10624336B2, “In-vitro embryonic culture medium comprising an inhibitor of cathepsin L and the use of the same in embryo cryopreservation” (BEIJING UNIVERSITY OF AGRICULTURE, priority 2016, dated 2020)
